According to article PMC8041284, “Tunable Methacrylamides for Covalent Ligand Directed Release Chemistry” (Journal of the American Chemical Society, 2021):
Read-outs that look alike come from different tables or passages of the source. Where a SMILES comes first, the peptide text is derived from it. Bridges are numbered along the chain shown (N, C = ends).

Target: BTK (Homo sapiens, UniProt Q06187)
Test: biochemical
[1] = read-out: BTK inhibition (%), 0.75 uM BTK, […] probe 3l, 15 min preincubation

Chain of BTK (Q06187 402-655 limits assumed): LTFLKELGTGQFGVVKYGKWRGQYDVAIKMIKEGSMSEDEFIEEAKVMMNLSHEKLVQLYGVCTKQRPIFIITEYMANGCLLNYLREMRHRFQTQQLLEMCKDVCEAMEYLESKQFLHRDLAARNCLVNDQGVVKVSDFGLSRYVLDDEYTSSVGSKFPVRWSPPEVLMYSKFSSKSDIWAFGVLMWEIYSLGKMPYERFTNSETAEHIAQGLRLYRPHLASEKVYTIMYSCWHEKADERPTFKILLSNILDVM

inhibition at 10 µM [1]	Structure (SMILES)	inhibition at 10 µM (read-out: BTK inhibition (%))
-22.8%	OC[C@@H](O)CN1CCN(c2ccccc2)CC1 [PCM-0214752]	–
46.2%	O=C(c1ccc(/C=C/c2n[nH]c3ccccc23)cc1)N1CCNCC1 [PCM-0095209]	–
82.6%	CN(CC(=O)N(Cc1ccc(C2CCCCC2)cc1)c1ccc(C(=O)O)c(O)c1)S(=O)(=O)c1c(F)c(F)c(F)c(F)c1F [PCM-0215770]	–
-13.2%	N[C@@H](C(=O)N[C@@H]1C(=O)N2C(C(=O)O)=C(Cl)CS[C@H]12)c1ccccc1 [PCM-0214861]	–
13.2%	COc1ccc(C2CNC(=O)C2)cc1OC1CCCC1 (stereo not shown) [PCM-0065474]	–
-7.8%	CNCCC(Oc1ccc(C(F)(F)F)cc1)c1ccccc1 (stereo not shown) [PCM-0065327]	–
3.1%	CC(N)C12CC3CC(CC(C3)C1)C2 (stereo not shown) [PCM-0012697]	–
17.9%	c1ccc2c(Oc3nc(Nc4ccc(N5CCOCC5)cc4)c4ncn(C5CCCCC5)c4n3)cccc2c1 [PCM-0215227]	–
2.3%	NS(=O)(=O)c1ccc(NC(=S)N2CCN(C/C=C/c3ccccc3)CC2)cc1 [PCM-0215808]	–
7.7%	COc1cc(O)c2c(=O)c(O[C@@H]3O[C@H](CO)[C@@H](O)[C@H](O)[C@H]3O)c(-c3ccc(O[C@@H]4O[C@H](CO)[C@@H](O)[C@H](O)[C@H]4O)cc3)oc2c1 [PCM-0216473]	–
85.5%	O=C(c1ccc(OCCN2CCCCC2)cc1)c1c(-c2ccc(O)cc2)sc2cc(O)ccc12 [PCM-0065394]	–
-22.4%	COc1ccc(S(=O)(=O)NCc2ccc(C(=O)NCCc3ccc(Cl)cn3)cc2)cc1 [PCM-0215817]	–
-3.4%	NCCCC[C@H](NC(=O)[C@@H]1CCCN1C(=O)[C@@H]1CSSC[C@H](NC(=O)CNC(=O)CNC(=O)CN)C(=O)N[C@@H](Cc2ccc(O)cc2)C(=O)N[C@@H](Cc2ccccc2)C(=O)N[C@@H](CCC(N)=O)C(=O)N[C@@H](CC(N)=O)C(=O)N1)C(=O)NCC(N)=O [PCM-0216274] (H-GGGCYFQNCPKG-NH2; disulfide 4-9)	–
-3.9%	Cc1c(OCC(F)(F)F)ccnc1C[S+]([O-])c1nc2ccccc2[nH]1 (stereo not shown) [PCM-0065586]	–
64.1%	COc1c(O)c(C)cc2c1C(=O)c1c(O)cccc1C2=O [PCM-0216457]	–
-0.9%	O=c1[nH]c([C@@H]2CCCN2)nc2c1oc1ccc(Cl)cc12 [PCM-0215335]	–
-11.9%	N[C@@H]1CONC1=O [PCM-0064462]	–
0%	CS(=O)(=O)c1ccc(-c2nnc(/C=C/c3nnc(-c4ccc(C#N)cc4)o3)n2-c2ccccc2Cl)nc1 [PCM-0215499]	–
100%	Clc1ccc(C(Cn2ccnc2)OCc2ccc(Sc3ccccc3)cc2)c(Cl)c1 (stereo not shown) [PCM-0095311]	–
45.9%	CCc1c(Cl)c(O)c(Cl)c(O)c1C(=O)O[C@H]1[C@H](O)[C@H](OC)[C@H](OC/C2=C\C=C\C[C@H](O)/C(C)=C/[C@H](CC)[C@@H](O[C@@H]3OC(C)(C)[C@@H](OC(=O)C(C)C)[C@H](O)[C@@H]3O)/C(C)=C/C(C)=C/C[C@@H]([C@@H](C)O)OC2=O)O[C@@H]1C [PCM-0214774]	–
7%	CC(C)NCC(O)c1ccc(O)c(O)c1 (stereo not shown) [PCM-0065609]	–
5.4%	CCCCCCNC(=O)Nc1ccc(S(=O)(=O)Nc2ccc(CCNC[C@H](O)COc3ccc(O)cc3)cc2)cc1 [PCM-0215659]	–
21%	O=C1c2c(O)cccc2[C@H]([C@@H]2O[C@H](CO)[C@@H](O)[C@H](O)[C@H]2O)c2cc(CO)cc(O)c21 [PCM-0094826]	–
10.8%	OC1OC[C@@H](O)[C@@H](O)[C@@H]1O (stereo partly shown) [PCM-0215980]	–

inhibition at 10 µM [1]	Structure (SMILES)	inhibition at 10 µM (read-out: BTK inhibition (%))
–	CCN1C[C@]2(COC)CC[C@H](OC)[C@]34C1[C@H]([C@H](OC)[C@H]23)[C@@]1(OC(C)=O)C[C@H](OC)[C@@]2(O)C[C@@H]4[C@@H]1[C@H]2OC(=O)c1ccc(OC)cc1 [PCM-0216304]	-17%
-1.6%	C=C1C[C@@]2(O)O[C@@]3(C[C@H]2C(C)C)[C@@H](C)CC[C@@H]13 [PCM-0214683]	–
-6.2%	CCCOC(=O)c1ccc(O)cc1 [PCM-0216242]	–
-11%	C/C(=C\C(=O)Nc1ccccc1C(=O)O)c1ccc2ccccc2c1 [PCM-0095068]	–
20.8%	O=C1C(=Cc2cccnc2)C(=O)c2ccccc21 [PCM-0216080]	–
-3.1%	NC1=N[C@@]2(c3cc(NC(=O)c4ccc(F)cn4)ccc3F)COC[C@H]2CS1 [PCM-0095207]	–
-10.8%	Cc1nc2c(O)cccc2c(=O)[nH]1 [PCM-0215466]	–
2.3%	OC[C@@H](O)C(O)[C@@H](O)CO (stereo partly shown) [PCM-0090917]	–
63.4%	CNC(=O)c1ccccc1Nc1cc(Nc2ccc(N3CCOCC3)cc2OC)ncc1C(F)(F)F [PCM-0215412]	–
7.7%	CC(C)[C@H](NC(=O)c1ccc2ccccc2n1)C(=O)N[C@@H](CC(=O)O)C(=O)COc1c(F)cccc1F [PCM-0215598]	–
9.3%	NC(=O)N1c2ccccc2C=Cc2ccccc21 [PCM-0064618]	–
15.9%	COCCOc1cnc2ccn([C@H](C)c3nnc4c(F)cc(-c5cnn(C)c5)cn34)c(=O)c2c1 [PCM-0215653]	–
6.2%	COc1ccccc1S(=O)(=O)Nc1ccc2c(c1)CN(C)C(=O)N2 [PCM-0094933]	–
-3.4%	NC(=O)C1CCCc2c1[nH]c1ccc(Cl)cc21 (stereo not shown) [PCM-0095104]	–
-1.6%	COc1cc(O)c(C(=O)c2ccccc2)cc1S(=O)(=O)O [PCM-0214826]	–
10.1%	Cc1ccc(C(C)C)cc2c(C)ccc1-2 [PCM-0215089]	–
23.9%	Nc1ncnc2c1c(I)cn2[C@@H]1O[C@H](CO)[C@@H](O)[C@H]1O [PCM-0215664]	–
21.3%	O=P(O)(O)OC1C(OP(=O)(O)O)C(OP(=O)(O)O)C(OP(=O)(O)O)C(OP(=O)(O)O)C1OP(=O)(O)O (stereo not shown) [PCM-0215940]	–
2.1%	CC(=O)OCC(=O)[C@@]1(O)CC[C@H]2[C@@H]3CCC4=CC(=O)C=C[C@]4(C)[C@H]3[C@@H](O)C[C@@]21C [PCM-0214701]	–
29%	CC(C)N(CCC(=O)c1ccc2ccccc2c1)Cc1ccccc1 [PCM-0064875]	–
-4.1%	N#CC(=C(/N)Sc1ccccc1N)/C(C#N)=C(\N)Sc1ccccc1N [PCM-0064783]	–
-16.6%	Cn1cc(-c2ccc3ncc(Cc4ccc5ncccc5c4)n3n2)cn1 [PCM-0095521]	–
14.8%	C[C@@H]1O[C@@H](O[C@H]2[C@H](Oc3cc(O)c(C(=O)CCc4ccc(O)cc4)c(O)c3)O[C@H](CO)[C@@H](O)[C@@H]2O)[C@H](O)[C@H](O)[C@H]1O [PCM-0094838]	–
-3.4%	CC(=O)OCC(=O)NCCCOc1cccc(CN2CCCCC2)c1 [PCM-0086003]	–

inhibition at 10 µM [1]	Structure (SMILES)	inhibition at 10 µM (read-out: BTK inhibition (%))
1.7%	C[N+](C)(C)CCOP(=O)([O-])OC[C@H](O)CO [PCM-0216043]	–
28.6%	COc1c(O)cc2c(c1O)C(=O)c1c(cc(C)c(O)c1OC)C2=O [PCM-0216431]	–
26.3%	CCOC(=O)N[C@@H]1CC[C@@H]2[C@@H](C1)C[C@H]1C(=O)O[C@H](C)[C@H]1[C@H]2/C=C/c1ccc(-c2cccc(F)c2)cn1 [PCM-0215561]	–
24.8%	CCCS(=O)(=O)Nc1ccc(F)c(C(=O)c2c[nH]c3ncc(-c4ccc(Cl)cc4)cc23)c1F [PCM-0095039]	–
28.3%	N#CC[C@H](C1CCCC1)n1cc(-c2ncnc3[nH]ccc23)cn1 [PCM-0095031]	–
–	O=[N+]([O-])c1ncc[nH]1 [PCM-0094820]	3.1%
14%	C=CCNC1=C2C[C@@H](C)C[C@H](OC)[C@H](O)[C@@H](C)/C=C(\C)[C@H](OC(N)=O)[C@@H](OC)/C=C\C=C(/C)C(=O)NC(=CC1=O)C2=O [PCM-0094959]	–
-21%	C=CCS[S+]([O-])CC=C (stereo not shown) [PCM-0215928]	–
7%	Cc1cc(Cl)ccc1OCCCC(=O)NO [PCM-0064710]	–
-25.7%	CC(=O)Oc1cc(C)c(OC(C)=O)c2ccccc12 [PCM-0215056]	–
72.4%	Cc1nc(Nc2n[nH]c3c2CN(C(=O)N[C@H](CN(C)C)c2ccccc2)C3(C)C)c2sccc2n1 [PCM-0095819]	–
-0.8%	O=c1cc(-c2ccccc2)oc2c1ccc1ccccc12 [PCM-0216134]	–
13.1%	Cc1cc(=O)oc2c([N+](=O)[O-])c(O)ccc12 [PCM-0216627]	–
57.9%	COc1cc2c(cc1OC(C)C)[C@H](c1ccc(Cl)cc1)N(c1ccc(N(C)CC3CCC(N4CCN(C)C(=O)C4)CC3)cc1)C(=O)C2 (stereo partly shown) [PCM-0215723]	–
68.7%	CN(CC(=O)N(Cc1ccc(C2CCCCC2)cc1)c1ccc(C(=O)O)cc1)S(=O)(=O)c1c(F)c(F)c(F)c(F)c1F [PCM-0095763]	–
-4.3%	CCC[C@H](N[C@@H](C)C(=O)N1[C@H](C(=O)O)C[C@@H]2CCCC[C@@H]21)C(=O)OCC [PCM-0095182]	–
48.3%	CCn1cc(-c2ccnc3[nH]c(-c4cccc(CN(C)C)c4)cc23)c(-c2ccc(NC(=O)N(C)C)cc2)n1 [PCM-0095464]	–
-3.9%	CCOC(=O)[C@H](CCc1ccccc1)N[C@@H](C)C(=O)N1[C@H](C(=O)O)C[C@@H]2CCC[C@@H]21 [PCM-0086308]	–
-7.8%	CC(=O)N=c1sc(S(N)(=O)=O)nn1C [PCM-0095591]	–
-65.4%	COc1ccc(Cl)cc1C(=O)NCCc1ccc(S(=O)(=O)NC(=O)NC2CCCCC2)cc1 [PCM-0003840]	–
–	CO[C@H]1C[C@H](O[C@H]2CC[C@]3(C)[C@H]4CC[C@]5(C)[C@@H](C6=CC(=O)OC6)CC[C@]5(O)[C@@H]4CC[C@]3(O)C2)O[C@H](C)[C@H]1O[C@@H]1O[C@H](CO)[C@@H](O)[C@H](O)[C@H]1O [PCM-0216449]	11.6%
92.4%	Cc1ccc(C(=O)Nc2ccc(CN3CCN(C)CC3)c(C(F)(F)F)c2)cc1C#Cc1cnc2cccnn12 [PCM-0095174]	–
15.4%	CCCc1cc(C)[nH]c(=O)c1CNC(=O)c1cc(-c2ccc(N3CCN(C)CC3)nc2)nc2c1cnn2C(C)C [PCM-0215988]	–
-11%	COC1=C(OC)C(=O)C(CCCCCCCCCCO)=C(C)C1=O [PCM-0085939]	–

Structure (SMILES)	inhibition at 10 µM [1]	inhibition at 10 µM (read-out: BTK inhibition (%))
C=CC(=O)N1C/C(=C\c2ccc([N+](=O)[O-])cc2)C(=O)/C(=C/c2ccc([N+](=O)[O-])cc2)C1 [PCM-0214766]	-15.6%	–
